Measurements from publication PMC11532403 (Signal Transduction and Targeted Therapy, 2024).
Where two headings read alike, the source gives them in different places.

Experiments:
[1] = system: RET-altered / thyroid / lung tumors; conditions: cited from earlier work
patients = conditions: cited from earlier work
MET = system: MET; design: method as in earlier work; conditions: read-out: MET IC50 ± SD; cited from earlier work
VEGFR-2 = system: VEGFR-2; design: method as in earlier work; conditions: read-out: VEGFR-2 IC50 ± SD; cited from earlier work
[2] = system: HEK293T-KIF5B-RET^V804M xenograft; test: Tumor xenograft model; format: in vivo, BALB/c nude mice; conditions: 20 mg/kg twice daily, 14 days
Experimental: All procedures relating to animal handling, care, and treatment were performed according to the Beijing Laboratory Animal Management Regulations. 6-week-old male BALB/c nude mice were inoculated subcutaneously into the flank with Baf3-CCDC6-RET^WT (5*10^6 cells/ 0.1 mL/ each), Baf3-CCDC6-RET^M918T (5*10^6 cells/0.1 mL/each), Baf3-CCDC6-RET^V804M (5*10^6 cells/ 0.1 mL/ each), or HEK293T-KIF5B-RET^V804M (5*10^6 cells/ 0.1 mL/ each). Mice were randomized by tumor size into groups of 10 to 12 when tumor volume reached approximately 100-150 mm^3. […] Tumor size and body weight were measured two times each week, and tumor volume was calculated with the following formula: [length × (width)^2]/ 2. Statistical significance was calculated by using two-way ANOVA test to assess the difference in tumor volumes between the control (vehicle-treated) and treatment groups.

hERG potassium channel = hERG potassium channel (Homo sapiens, UniProt Q12809); design: method as in literature; conditions: in vitro GLP hERG assay, ref literature; cited from earlier work
Chain of hERG potassium channel (Q12809 whole entry): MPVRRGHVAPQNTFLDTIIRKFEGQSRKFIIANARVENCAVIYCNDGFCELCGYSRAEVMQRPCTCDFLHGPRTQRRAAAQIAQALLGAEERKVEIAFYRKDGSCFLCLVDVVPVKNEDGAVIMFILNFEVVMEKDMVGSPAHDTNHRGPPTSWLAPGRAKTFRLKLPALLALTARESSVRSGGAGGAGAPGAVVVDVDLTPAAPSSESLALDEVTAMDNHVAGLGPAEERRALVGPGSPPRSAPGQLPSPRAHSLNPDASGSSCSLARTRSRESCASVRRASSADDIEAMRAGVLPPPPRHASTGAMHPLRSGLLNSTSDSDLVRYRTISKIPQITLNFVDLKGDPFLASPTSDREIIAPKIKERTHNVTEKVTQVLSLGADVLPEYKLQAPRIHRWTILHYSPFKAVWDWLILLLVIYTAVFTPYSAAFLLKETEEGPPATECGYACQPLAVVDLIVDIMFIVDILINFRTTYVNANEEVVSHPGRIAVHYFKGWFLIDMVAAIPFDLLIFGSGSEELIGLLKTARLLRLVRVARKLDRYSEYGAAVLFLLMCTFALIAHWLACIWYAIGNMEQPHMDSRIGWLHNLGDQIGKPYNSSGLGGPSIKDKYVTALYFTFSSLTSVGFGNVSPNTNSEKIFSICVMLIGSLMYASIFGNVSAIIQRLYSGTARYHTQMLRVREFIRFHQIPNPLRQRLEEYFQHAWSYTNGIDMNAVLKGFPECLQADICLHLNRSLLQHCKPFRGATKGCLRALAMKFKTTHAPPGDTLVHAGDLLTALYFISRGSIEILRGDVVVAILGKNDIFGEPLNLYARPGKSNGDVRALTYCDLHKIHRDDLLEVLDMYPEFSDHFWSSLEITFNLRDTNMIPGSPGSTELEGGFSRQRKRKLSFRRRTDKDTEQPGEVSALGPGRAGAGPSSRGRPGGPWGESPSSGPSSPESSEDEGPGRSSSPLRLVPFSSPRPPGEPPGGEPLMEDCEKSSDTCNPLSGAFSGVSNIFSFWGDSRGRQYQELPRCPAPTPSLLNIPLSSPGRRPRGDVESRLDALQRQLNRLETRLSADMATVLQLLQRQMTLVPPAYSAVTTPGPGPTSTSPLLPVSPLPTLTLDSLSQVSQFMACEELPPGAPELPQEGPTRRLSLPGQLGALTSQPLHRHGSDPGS

RET = conditions: cited from earlier work

In the case of `CO[C@]1(C(=O)N[C@@H](C)c2ccc(-n3cc(F)cn3)nc2)CC[C@H](c2nc(C)cc(Nc3cc(C)[nH]n3)n2)CC1` [pralsetinib], the Complete response ([1]; ARROW, NSCLC ref 101) is listed as 14%, the “Patients with tumor shrinkage” value ([1]; ARROW, NSCLC ref 101) is listed as 95% and the ORR ([1]; ARROW, RET fusion-positive NSCLC ref 101) is listed as 61%. For the same compound, the ORR ([1]; ARROW, RET fusion-positive NSCLC, previously treated ref 29) was 59%, the ORR ([1]; ARROW, RET fusion-positive NSCLC, treatment-naïve ref 29) was 72% and the ORR ([1]; ARROW, RET-mutant MTC previously treated with vandetanib ref 101) was 60%. For the same compound, the ORR ([1]; ARROW, treatment-naïve MTC ref 101) was 74%, the ORR ([1]; ARROW, treatment-naïve RET-mutant MTC ref 31) was 71% and the “Grade ≥ 3 TRAEs” value (patients; ARROW ref 22,29) was 54%. The “Grade ≥ 3 anemia” value (patients; ARROW ref 22,29) was 12%, the “Grade ≥ 3 hypertension” value (patients; ARROW ref 22,29) was 12% and the “Grade ≥ 3 leukopenia” value (patients; ARROW ref 22,29) was 8%. For the same compound, the “Grade ≥ 3 lymphopenia” value (patients; ARROW ref 22,29) was 9%, the “Grade ≥ 3 neutropenia” value (patients; ARROW ref 22,29) was 20% and the TRSAEs (patients; ARROW ref 22,29) was 24%. For the same compound, the Treatment-induced deaths (patients) was 0.4%, the Treatment-induced discontinuations (patients) was 7% and the Treatment-induced dose reductions (patients) was 38%.

For `CNC(=O)c1cc(Oc2ccc(NC(=O)Nc3ccc(Cl)c(C(F)(F)F)c3)cc2)ccn1` [sorafenib], the PR rate ([1]; DECISION ref 80) is given as 12.2%.

For `COc1cc2nccc(Oc3ccc(NC(=O)C4(C(=O)Nc5ccc(F)cc5)CC4)cc3)c2cc1OC` [cabozantinib], the ORR ([1]; NCT00704730, MTC ref 89) is listed as 28%, the mPFS ([1]; NCT00704730, MTC, 140 mg/d ref 89) is listed as 11.2 months and the mOS ([1]; RET M918T-positive subgroup ref 89) is listed as 44.3 months. For the same compound, the IC50 (MET) was 1.3 ± 1.2 nM and the IC50 (VEGFR-2) was 0.035 ± 0.01 nM.

For `COc1ccc(CN2C3CC2CN(c2ccc(-c4cc(OCC(C)(C)O)cn5ncc(C#N)c45)cn2)C3)cn1` [selpercatinib], the TGI [2] is given as 45.2%, the IC50 (hERG potassium channel) is given as 1100 nM and the ORR ([1]; LIBRETTO-001, 19 RET fusion-positive thyroid cancer ref 96-97) is given as 79%. For the same compound, the ORR ([1]; LIBRETTO-001, 39 NSCLC without systemic therapy ref 96-97) was 84%, the ORR ([1]; LIBRETTO-001, 105 RET fusion-positive NSCLC ref 96-97) was 64% and the ORR ([1]; LIBRETTO-001, NSCLC, previously treated ref 28) was 61%. The ORR ([1]; LIBRETTO-001, RET-mutant thyroid cancer, 55 previously treated ref 96-97) was 69%, the ORR ([1]; LIBRETTO-001, RET-mutant thyroid cancer, 88 not previously treated ref 96-97) was 73% and the ORR ([1]; LIBRETTO-431, NSCLC, treatment-naïve ref 30) was 84%. The ORR ([1]; LIBRETTO-531, RET-mutant MTC ref 32) was 69.4%, the “1-year DoR rate” value ([1]; previously treated ref 28) was 73.1% and the “1-year PFS rate” value ([1]; previously treated ref 28) was 70.5%. The “1-year DoR rate” value ([1]; treatment-naïve ref 28) was 66.1%, the “1-year PFS rate” value ([1]; treatment-naïve ref 28) was 70.6% and the “Grade ≥ 3 TRAEs” value (patients; LIBRETTO-001 ref 28) was 38.6%. The “Grade ≥ 3 hypertension” value (patients; LIBRETTO-001 ref 28) was 13.2%, the “Grade ≥ 3 increased ALT” value (patients; LIBRETTO-001 ref 28) was 9.0% and the “Grade ≥ 3 increased AST” value (patients; LIBRETTO-001 ref 28) was 6.3%. For the same compound, the TRSAEs (patients; LIBRETTO-001 ref 28) was 11%, the Treatment-induced deaths (patients) was 0.1% and the Treatment-induced discontinuations (patients) was 3%. For the same compound, the Treatment-induced dose reductions (patients) was 41%.

In the case of `COc1cc2nccc(Oc3ccc(NC(=O)NC4CC4)c(Cl)c3)c2cc1C(N)=O` [lenvatinib], the ORR ([1]; NCT01877083, RET fusion NSCLC, 24 mg/d ref 93) is listed as 16%, the DCR ([1]; NCT01877083 ref 93) is listed as 76% and the mPFS ([1]; NCT01877083 ref 93) is listed as 7.3 months. The “Patients with grade 3 or higher AEs” value (patients; NCT01877083 ref 93) was 92%.

In the case of `COc1cc2c(Nc3ccc(Br)cc3F)ncnc2cc1OCC1CCN(C)CC1` [vandetanib], the IC50 (RET) is given as […].
